Experimental data from article PMC10778824, “New Chalcone Derivatives Containing 2,4-Dichlorobenzenesulfonamide Moiety with Anticancer and Antioxidant Properties” (International Journal of Molecular Sciences, 2023).
≈ marks a conversion by molar mass, not a printed value.

Legend:
K-562 cells = conditions: 10 µM; cited from earlier work
HCT-116 colon = tested on: HCT-116 colon; design: method as in PMID 29223717; conditions: cited from earlier work
MCF-7 breast = tested on: MCF-7 breast; design: method as in PMID 29223717; conditions: cited from earlier work
143B osteosarcoma = tested on: 143B osteosarcoma; design: method as in PMID 29223717; conditions: cited from earlier work
[1] = β-Carotene bleaching test
Protocol: β-Carotene bleaching test was based on the method described by Olszowy et al. with some modifications. First, 1 mg of β-carotene was dissolved in 5 mL of chloroform. Afterwards, […] of linoleic acid and 200 mg of Tween 40 were added. The chloroform was evaporated, and 50 mL of oxygenized water was added. The created emulsion was mixed with different concentrations of chalcone derivatives. β-carotene bleaching was analyzed at λ = 492 nm before (t = 0 min) and after 90 min (t = 90 min) of incubation at 50 °C (Epoch, BioTek Instruments, Santa Clara, CA, USA). Ascorbic acid was used as a standard. The control was composed of emulsion and DMSO.
The results were calculated according to the following Formula (4):[(AsampleT0 − AsampleT90)/(AcontrolT0 − AcontrolT90) × 100%(4)

cervical cancer HeLa = assay: MTT assay, HeLa cells; assay type: cell-based, human
Protocol: (§1) The human gastric adenocarcinoma AGS, cervical cancer HeLa, and acute promyelocytic leukemia HL-60 cells were obtained from the American Type Culture Collection (ATCC, Manassas, VA, USA). Human neonatal fibroblasts were obtained from LGC Standards (Luckenwalde, Germany). The HeLa and AGS lines were cultured in Dulbecco’s modified Eagle’s medium (DMEM) and DMEM/F12 medium, respectively. The HL-60 line was maintained in RPMI-1640 medium. Fibroblasts were cultured in Fibroblast Growth Medium with Supplement Mix. All the media were supplemented with 100 units/mL of penicillin, 100 µg/mL of streptomycin, and 10% (v/v) fetal bovine serum (FBS) (Merck Millipore, Burlington, MA, USA). The cells were incubated at 37 °C and 5% CO2.
(§2) To estimate the cytotoxic effect of the five compounds (4–8), MTT (3-(4,5-dimethylthiazol-2-yl)-2,5-diphenyltetrazolium bromide) assay was used. Oxaliplatin was used as a positive control in this test. All the cell lines were seeded in 96-well plates at a density of 5 × 10^3 cells/well and treated for 24 h with the compounds at concentrations of 0.5–40 µg/mL. Oxaliplatin was tested in the range of 20–400 µg/mL (50–1000 µM). After treatment, the cells were incubated with MTT (0.5 mg/mL; Merck Millipore, Burlington, MA, USA) for 3 h. Then, DMSO was used to dissolve formazan crystals, and the absorbance of the formazan solution was measured with a plate reader (Epoch, BioTek Instruments, Santa Clara, CA, USA). All the results (±standard deviation (SD)) were obtained from six repetitions in at least two independent experiments. The data are expressed as IC50 values (µg/mL).

[2] = tested on: Listeria monocytogenes PCM2191; assay: MIC determination; assay type: cell-based; conditions: 37 °C, 48 h
Protocol: (§3) The MIC determinations for Staphylococcus epidermidis ATCC14990, Staphylococcus aureus ATCC6538, Enterococcus faecalis ATCC51299, Klebsiella pneumoniae ATCC13883, Escherichia coli ATCC8739, Salmonella enterica ATCC13076, Helicobacter pylori ATCC43504, Campylobacter jejuni ZMF, Campylobacter coli ZMF, Bacillus cereus PCM 1948,2019 (ATCC11778), and Listeria monocytogenes PCM2191 were performed based on the methodology described by Krauze-Baranowska et al.. The procedure for H. pylori was used in the experiments with Campylobacter strains, and the procedure for B. subtilis was used in the experiments with L. monocytogenes and B. cereus. The tested samples were dissolved in DMSO and diluted with water (concentration of approximately 500 μg/mL). The solutions were diluted geometrically by transferring the mixture/dilution (100 μL) from the first to the twelfth well of the microtiter plate. The final concentrations of samples used for antimicrobial effects ranged from 500 to 0.006 µg/mL. Ampicillin was used as a reference compound in the concentration range of 128 to 0.0625 µg/mL. The tests were incubated at 37 °C for 48 h. The diluent concentration had no effect on the activity of the tested compounds. All experiments were performed in triplicate.

Campylobacter coli ZMF = assay: MIC determination; assay type: cell-based; conditions: 37 °C, 48 h
Protocol: as §3

[3] = tested on: Enterococcus faecalis ATCC51299; assay: MIC determination; assay type: cell-based; conditions: 37 °C, 48 h
Protocol: as §3

[4] = tested on: Klebsiella pneumoniae ATCC13883; assay: MIC determination; assay type: cell-based; conditions: 37 °C, 48 h
Protocol: as §3

[5] = tested on: Staphylococcus epidermidis ATCC14990; assay: MIC determination; assay type: cell-based; conditions: 37 °C, 48 h
Protocol: as §3

[6] = tested on: Bacillus cereus PCM 1948,2019 (ATCC11778); assay: MIC determination; assay type: cell-based; conditions: 37 °C, 48 h
Protocol: as §3

Campylobacter jejuni ZMF = assay: MIC determination; assay type: cell-based; conditions: 37 °C, 48 h
Protocol: as §3

[7] = tested on: Helicobacter pylori ATCC43504; assay: MIC determination; assay type: cell-based; conditions: 37 °C, 48 h
Protocol: as §3

[8] = tested on: Escherichia coli ATCC8739; assay: MIC determination; assay type: cell-based; conditions: 37 °C, 48 h
Protocol: as §3

[9] = tested on: Staphylococcus aureus ATCC6538; assay: MIC determination; assay type: cell-based; conditions: 37 °C, 48 h
Protocol: as §3

[10] = tested on: Salmonella enterica ATCC13076; assay: MIC determination; assay type: cell-based; conditions: 37 °C, 48 h
Protocol: as §3

neutrophil elastase = biological target: T1, neutrophil elastase (Sus scrofa, UniProt P00772); assay: Elastase assay (SANA substrate); assay type: biochemical, porcine; conditions: Tris-HCl pH 8.0, SANA substrate; read-out: neutrophil elastase inhibition IC50 (converted)
T1 construct: purchased Sigma Chemical Co. (St. Louis, MO, USA)
T1 sequence (P00772 27-266): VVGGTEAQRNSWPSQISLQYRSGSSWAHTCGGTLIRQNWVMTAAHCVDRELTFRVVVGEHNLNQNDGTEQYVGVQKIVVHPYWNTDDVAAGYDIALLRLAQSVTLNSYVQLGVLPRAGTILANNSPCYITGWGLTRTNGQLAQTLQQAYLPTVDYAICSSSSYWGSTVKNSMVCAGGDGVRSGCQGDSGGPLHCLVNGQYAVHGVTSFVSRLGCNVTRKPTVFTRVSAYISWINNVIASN
Protocol: The elastase analysis was performed according to the spectrophotometric method with oleanolic acid as a reference. The reaction mixture (Tris-HCl buffer (pH 8.0), 1.0 μg/mL porcine pancreatic elastase, and different concentrations of chalcone derivatives was preincubated at room temperature for 15 min. Afterwards, the addition of the substrate—SANA—started the reaction. Product formation changes were analyzed at λ = 410 nm for 20 min every 20 s (Epoch, BioTek Instruments, Santa Clara, CA, USA). The control was composed of Tris-HCl buffer (pH 8.0), an appropriate concentration of the chalcone derivative, and SANA.

[11] = DPPH radical scavenging assay; conditions: for % of DPPH radical inhibition: concentration of 800 µg/mL
Protocol: The DPPH radical scavenging assay of samples (ligands or complexes) was performed with ascorbic acid as a standard. Different concentrations of chalcone derivatives, dissolved in DMSO, were mixed with the same amount of 0.06 mM DPPH methanolic solution and incubated at room temperature in the dark for 30 min. The absorbance was analyzed at λ = 517 nm using a 96-well microplate reader (Epoch, BioTek System, Winooski, VT, USA). The control was composed of DPPH and DMSO. DPPH inhibition was calculated according to the following Formula (2):DPPH Inhibition (%) = [(Acontrol − Asample)/Acontrol] × 100%(2)

[12] = tested on: gastric adenocarcinoma AGS; assay: MTT assay, AGS cells; assay type: cell-based, human
Protocol: as §1, §2

[13] = tested on: cancer cells (HeLa, HL-60, AGS); assay: MTT assay, cancer cells taken together; assay type: cell-based, human; conditions: HL-60 and AGS together
Protocol: as §1, §2

[14] = tested on: human neonatal fibroblasts; assay: MTT assay, noncancerous fibroblasts; assay type: cell-based; conditions: Homo sapiens, Fibroblast, 24 h treatment
Protocol: as §1, §2

[15] = tested on: acute promyelocytic leukemia HL-60; assay: MTT assay, HL-60 cells; assay type: cell-based, human
Protocol: as §1, §2

[16] = tested on: colon cancer cells (HTC-116); design: method as in PMID 12556221; conditions: preclinical tests; cited from earlier work
[17] = ABTS radical scavenging assay
Protocol: The ABTS radical scavenging assay of chalcone derivatives was performed with ascorbic acid as a standard. Different concentrations of samples, dissolved in DMSO, were mixed with 170 μL of ABTS solution (2 mM ABTS diammonium salt and 3.5 mM potassium persulfate), and water was added to a final volume of 300 μL. ABTS solution with DMSO was used as a control. […] ABTS inhibition was calculated according to the following Formula (3):ABTS Inhibition (%) = [(Acontrol − Asample)/Acontrol] × 100%(3)

[18] = tested on: hepatocellular carcinoma HepG2 cells; design: method as in PMID 32545423; conditions: cited from earlier work
[19] = biological target: BRAF serine–threonine kinase; design: method as in PMID 22646766; conditions: cited from earlier work
[20] = SI = IC50 noncancer cells/IC50 cancer cells, in relation to human neonatal fibroblasts

For `COc1ccc(C(=O)C=Cc2ccccc2)cc1S(N)(=O)=O` [5-cinnamoyl-2-methoxybenzenesulfonamide], the “viability of leukemia cells” value (K-562 cells) is given as “less than 10%”.
For `Cc1cccc(S(=O)(=O)Nc2cccc(/C=C/C(=O)c3nc4ccccc4[nH]3)c2)c1` [(E)-N-{3-[3-(1H-benzo[d]imidazol-2-yl)-3-oxoprop-1-en-1-yl]phenyl}-3-methylbenzenesulfonamide], the IC50 (HCT-116 colon) is given as 600 nM, the IC50 (MCF-7 breast) is given as 890 nM and the IC50 (143B osteosarcoma) is given as 790 nM.
In the case of `Cc1ccc(/C=C/C(=O)c2ccc(NS(=O)(=O)c3cc(C)c(Cl)cc3Cl)cc2)cc1` [Compound 8, (E)-2,4-Dichloro-5-Methyl-N-{4-[3-(p-Tolyl)acryloyl]phenyl}benzenesulfonamide], the “protection of lipids oxidation / reduction of lipid peroxidation (in words)” value ([1]; compared to ascorbic acid) is reported as “weaker properties”, the IC50 (cervical cancer HeLa; Homo sapiens, HeLa, MTT, 24 h treatment) is reported as 7.96 ± 0.37 µg/mL (≈ 17.3 µM) and the “selectivity index HeLa” value (cervical cancer HeLa; [20]) is reported as 3.50. The MIC [2] was greater than 500 µg/mL, the MIC (Campylobacter coli ZMF) was greater than 500 µg/mL and the MIC [3] was greater than 500 µg/mL. The MIC [4] was greater than 500 µg/mL, the MIC [5] was greater than 500 µg/mL and the MIC [6] was greater than 500 µg/mL. The MIC (Campylobacter jejuni ZMF) was greater than 500 µg/mL, the MIC [7] was greater than 500 µg/mL and the MIC [8] was greater than 500 µg/mL. The MIC [9] was greater than 500 µg/mL, the MIC [10] was greater than 500 µg/mL and the IC50 (neutrophil elastase) was 55900 nM. The “% of DPPH radical inhibition” value [11] was 0.32 ± 0.03%, the IC50 ([12]; Homo sapiens, AGS, 24 h, MTT, 24 h treatment) was 3.6 ± 0.33 µg/mL (≈ 7.82 µM) and the “selectivity index AGS” value [12, 20] was 7.72. The “IC50 toward cancer cells” value [13] was “weaker activity”, the IC50 [14] was 27.8 ± 2.82 µg/mL (≈ 60.4 µM) and the IC50 ([15]; Homo sapiens, HL-60, 24 h, MTT, 24 h treatment) was 2.9 ± 0.17 µg/mL (≈ 6.3 µM). For the same molecule, the “selectivity index HL-60” value [15, 20] was 9.58.
In the case of `NS(=O)(=O)c1ccc(S(=O)(=O)Nc2cccc3c(Cl)c[nH]c23)cc1` [Indisulam], the “IC50 colon cancer cells (HTC-116)” value [16] is listed as 0.11 µg/mL (≈ 0.285 µM).
For `O=C1O[C@H]([C@@H](O)CO)C(O)=C1O` [ascorbic acid, reference compound], the “ABTS IC50” value [17] was 20.43 ± 0.79 µg/mL, the “% of ABTS radical inhibition” value ([17]; concentration of 800 µg/mL) was 100% and the “β-carotene bleaching IC50” value ([1]; 90 min at 50 °C) was 15.6 ± 0.65 µg/mL. For the same molecule, the “DPPH IC50” value [11] was 12.75 ± 0.25 µg/mL and the “% of DPPH radical inhibition” value [11] was 100%.
In the case of `COc1cc(O)cc(O)c1C(=O)/C=C/c1ccccc1` [cardamonin], the IC50 [18] is listed as 17100 ± 592 nM.
In the case of `CCCS(=O)(=O)Nc1ccc(F)c(C(=O)c2c[nH]c3ncc(-c4ccc(Cl)cc4)cc23)c1F` [vemurafenib], the IC50 [19] is listed as 31 nM.
For methoxytolylacryloylbenzenesulfonamide, the “viability of leukemia cells” value (K-562 cells) is listed as “less than 10%”.
